From patent US20230123334A1, “AMINO LIPID COMPOUND, PREPARATION METHOD THEREFOR, AND APPLICATION THEREOF” (SHENZHEN SHENXIN BIOTECHNOLOGY CO., LTD., priority 2020, published 2023)

Test system: HEK293 cells
Assay: Preliminary screening as DNA vectors, GFP transfection of HEK293 cells
Type: cell-based
Conditions: amino lipid/DOPE liposome with 75 ng plasmid DNA (psin-EGFP-IRES-Puro); number of GFP-expressing cells divided by total nuclei (Hoechst)
Experimental: Cell line: HEK293 cells (ATCC CRL-1573™)
Medium: DMEM supplemented with 10% fetal bovine serum (Invitrogen)
Mode of screening: cell transfection on 96-well plates
Detection (readout): percentage of the number of GFP fluorescent cells relative to the total number of cells (the total number of cells was measured using nucleus dye Hoechst—see FIG. 2). Lipofectamine2000 (Invitrogen) was used as positive control, according to the manufacturer's instructions.
Method: an 8-channel pipette was used for sample addition. The contents shown were for a single well of a 96-well flat plate.
1. The compound (0.01 mmol) prepared in Example 1 was dissolved in 1 mL of anhydrous ethanol. After ultrasonically dissolved, 10 μL of the resultant amino lipid solution in ethanol was taken and mixed with 5 μL of DOPE solution in ethanol (0.01 m), and then to the obtained mixture was added 35 μL of 0.2M sodium acetate buffer (pH 5.6), and 50 μL of liposome solution was prepared by vortex at a constant rotating speed for 30 s. 4 μL was taken from the 50 μL liposome solution and added to 46 μL of 0.02M sodium acetate buffer (pH 5.6), and the final liposome solution was formed by vortex at a constant rotating speed for 30 s. 5 μL was taken from the final liposome solution and mixed with 75 ng plasmid DNA (psin-EGFP-IRES-Puro, Clontech) dissolved in 5 μL of 0.02 M sodium acetate buffer, and was allowed to stay at room temperature for 30 min to form a lipid/DNA transfection complex.
2. 10 μL of the lipid/DNA transfection complex was incubated at room temperature for 30 min, followed by addition of 90 μL of fresh resuspended cells (3-5×10^4 cells) and mixing with a pipette. 100 μL of cells+lipid/DNA complex was transferred to separate wells of a 96-well culture plate immediately, and placed in an incubator containing 5% CO2 at 37° C.
3. Hoechst33258 (Invitrogen) was added at a final concentration of 0.2 μg/mL to the cells 20 to 24 hours after initial cell transfection, and cultured in darkness at 37° C. for 15 min. Afterwards, the cells were washed once with a PBS solution, and then added with medium for culture for 20 to 24 h.
4. The cells were placed in a high-throughput confocal microscope (Molecular Devices ImageXpress), and four visual fields of the image of the cells were captured for each well, and images at three laser wavelengths were captured for each sample: bright field images of cells (FIG. 2(a) and FIG. 2(b)), Hoechst-staining images showing total nuclei (FIG. 2(c) and FIG. 2(d)) and GFP images showing success in transfection with the plasmid DNA and the expression of GFP (FIG. 2(e) and FIG. 2(f)). MetaXpress software was used to separately count the cells in the Hoechst-staining images and GFP images, and then the number of cells expressing GFP was divided by the total number of nuclei to give the absolute cell transfection efficiency. The absolute transfection efficiency was calculated as follows: […]

CCCCCCCCCCCCCCCCNc1nc(NCCN(CC)CC)nc(SCCCCCCCCC)n1 [S9N16 D7]
Absolute DNA transfection efficiency in HEK293 cells: 6.4%

CCCCCCCCCCCCCCCCNc1nc(NCCCN(C)C)nc(SCCCCCCCCCCC)n1 [S11N16 D6]
Absolute DNA transfection efficiency in HEK293 cells: 5.7%

CCCCCCCCCCCCCCSc1nc(NCCN2CCOCC2)nc(N(CCCCCCCCCCCC)CCCCCCCCCCCC)n1 [S14^2N12 D2]
Absolute DNA transfection efficiency in HEK293 cells: 0.0%

CCCCCCCCCCCCCCCNc1nc(NCCN2CCN(C)CC2)nc(SCCCCCCCCCCCCCC)n1 [S14N15 D5]
Absolute DNA transfection efficiency in HEK293 cells: 0.4%

CCCCCCCCSc1nc(NCCCCCC)nc(NCCCN(C)C)n1 [S8N6 D6]
Absolute DNA transfection efficiency in HEK293 cells: 4.3%

CCCCCCCCCCCSc1nc(NCCCCCC)nc(NCCCN2CCN(C)CC2)n1 [S11N6 D9]
Absolute DNA transfection efficiency in HEK293 cells: 13.5%

CCCCCCCCCCCCCCCSc1nc(NCCCCCCC)nc(NCCN(CC)CC)n1 [S15N7 D7]
Absolute DNA transfection efficiency in HEK293 cells: 13.3%

CCCCCCCCCCCCSc1nc(NCCCN2CCOCC2)nc(N(CCCCCCCCCCCC)CCCCCCCCCCCC)n1 [S12^2N12 D8]
Absolute DNA transfection efficiency in HEK293 cells: 0.0%

CCCCCCCNc1nc(NCCN2CCCCC2)nc(SCCCCCC)n1 [S6N7 D4]
Absolute DNA transfection efficiency in HEK293 cells: 1.1%

CCCCCCCCCCCCCCCCSc1nc(NCC2CCN(C)CC2)nc(SCCCCCC)n1 [S6S16 D10]
Absolute DNA transfection efficiency in HEK293 cells: 37.6%

CCCCCCCCCCCCCCCCCCNc1nc(NCCN2CCOCC2)nc(SCCCCCCCCCC)n1 [S10N18 D2]
Absolute DNA transfection efficiency in HEK293 cells: 2.1%

CCCCCCCCCCSc1nc(NCCCCCCCCC)nc(NCC2CCN(C)CC2)n1 [S10N9 D10]
Absolute DNA transfection efficiency in HEK293 cells: 4.5%

CCCCCCCCCCCCCCCCCCSc1nc(NCCCCCCCC)nc(NCCN2CCOCC2)n1 [S18N8 D2]
Absolute DNA transfection efficiency in HEK293 cells: 3.8%

CCCCCCCCCCCCN(CCCCCCCCCCCC)c1nc(NCCN(C)C)nc(SCCCCCC)n1 [S6^2N12 D1]
Absolute DNA transfection efficiency in HEK293 cells: 0.4%

CCCCCCCCCCCCN(CCCCCCCCCCCC)c1nc(NCCCN2CCOCC2)nc(SCCCCCCCCCCC)n1 [S11^2N12 D8]
Absolute DNA transfection efficiency in HEK293 cells: 0.0%

CCCCCCCCCCCCSc1nc(NCCCCCC)nc(NCC2CCN(C)CC2)n1 [S12N6 D10]
Absolute DNA transfection efficiency in HEK293 cells: 0.1%

CCCCCCCCCCSc1nc(NCCN2CCCC2)nc(SCCCCCCCC)n1 [S8S10 D3]
Absolute DNA transfection efficiency in HEK293 cells: 8.9%

CCCCCCCNc1nc(NCCN2CCN(C)CC2)nc(SCCCCCCC)n1 [S7N7 D5]
Absolute DNA transfection efficiency in HEK293 cells: 33.5%

CCCCCCCCCCCSc1nc(NCCCN(C)C)nc(SCCCCCCCC)n1 [S8S11 D6]
Absolute DNA transfection efficiency in HEK293 cells: 7.9%

CCCCCCCCCCCCNc1nc(NCCCN2CCN(C)CC2)nc(SCCCCCCCCC)n1 [S9N12 D9]
Absolute DNA transfection efficiency in HEK293 cells: 28.8%

CCCCCCCCSc1nc(NCC2CCN(C)CC2)nc(SCCCCCCC)n1 [S7S8 D10]
Absolute DNA transfection efficiency in HEK293 cells: 0.0%

CCCCCCCNc1nc(NCCN2CCCCC2)nc(SCCCCCCC)n1 [S7N7 D4]
Absolute DNA transfection efficiency in HEK293 cells: 11.3%

CCCCCCCCCNc1nc(NCCN2CCCCC2)nc(SCCCCCC)n1 [S6N9 D4]
Absolute DNA transfection efficiency in HEK293 cells: 0.4%

CCCCCCCCCCCSc1nc(NCCN(C)C)nc(SCCCCCCCC)n1 [S8S11 D1]
Absolute DNA transfection efficiency in HEK293 cells: 9.2%

CCCCCCCCCCCCCCCCSc1nc(NCCCCCCCCC)nc(NCC2CCN(C)CC2)n1 [S16N9 D10]
Absolute DNA transfection efficiency in HEK293 cells: 6.9%

CCCCCCCCCCCCCCCCNc1nc(NCCN2CCCC2)nc(SCCCCCCCCC)n1 [S9N16 D3]
Absolute DNA transfection efficiency in HEK293 cells: 31.3%

CCCCCCCCCCCSc1nc(NCCCCCCCCC)nc(NCCN2CCN(C)CC2)n1 [S11N9 D5]
Absolute DNA transfection efficiency in HEK293 cells: 20.5%

CCCCCCCCCCCCNc1nc(NCCN(CC)CC)nc(SCCCCCCCCCCC)n1 [S11N12 D7]
Absolute DNA transfection efficiency in HEK293 cells: 9.8%

CCCCCCCCCCCCCCSc1nc(NCCCCCCCCC)nc(NCCN2CCOCC2)n1 [S14N9 D2]
Absolute DNA transfection efficiency in HEK293 cells: 9.7%

CCCCCCCCCCCNc1nc(NCCCN(C)C)nc(SCCCCCC)n1 [S6N11 D6]
Absolute DNA transfection efficiency in HEK293 cells: 1.9%

CCCCCCCCCCCCSc1nc(NCCCN(C)C)nc(SCCCCCCCC)n1 [S8S12 D6]
Absolute DNA transfection efficiency in HEK293 cells: 12.6%

CCCCCCCCCCCCCNc1nc(NCCCN2CCN(C)CC2)nc(SCCCCCCCCCCC)n1 [S11N13 D9]
Absolute DNA transfection efficiency in HEK293 cells: 4.9%

CCCCCCCCCCCCCCCCCCSc1nc(NCCCCCCCC)nc(NCCN2CCCCC2)n1 [S18N8 D4]
Absolute DNA transfection efficiency in HEK293 cells: 3.9%

CCCCCCCCCSc1nc(NCCCN2CCN(C)CC2)nc(SCCCCCCC)n1 [S7S9 D9]
Absolute DNA transfection efficiency in HEK293 cells: 17.1%

CCCCCCCCCSc1nc(NCCCCCCC)nc(NCCCN2CCN(C)CC2)n1 [S9N7 D9]
Absolute DNA transfection efficiency in HEK293 cells: 12.1%

CCCCCCCCCCSc1nc(NCCCCCCCC)nc(NCCN(C)C)n1 [S10N8 D1]
Absolute DNA transfection efficiency in HEK293 cells: 7.1%

CCCCCCCCCCCCCCCCCCNc1nc(NCCN2CCCCC2)nc(SCCCCCCCCCCCCCCC)n1 [S15N18 D4]
Absolute DNA transfection efficiency in HEK293 cells: 0.4%

CCCCCCCCCCCSc1nc(NCCCCCCCC)nc(NCC2CCN(C)CC2)n1 [S11N8 D10]
Absolute DNA transfection efficiency in HEK293 cells: 33.4%

CCCCCCCCCSc1nc(NCCCCCC)nc(NCCN(CC)CC)n1 [S9N6 D7]
Absolute DNA transfection efficiency in HEK293 cells: 9.8%

CCCCCCCCCCCCN(CCCCCCCCCCCC)c1nc(NCCN2CCCCC2)nc(SCCCCCCCCCCC)n1 [S11^2N12 D4]
Absolute DNA transfection efficiency in HEK293 cells: 0.0%

CCCCCCCCCCCSc1nc(NCCCCCCC)nc(NCCN(CC)CC)n1 [S11N7 D7]
Absolute DNA transfection efficiency in HEK293 cells: 11.6%

CCCCCCCCCCSc1nc(NCCN2CCCCC2)nc(SCCCCCCC)n1 [S7S10 D4]
Absolute DNA transfection efficiency in HEK293 cells: 8.1%

CCCCCCCCCCCCCCCCNc1nc(NCCN2CCCCC2)nc(SCCCCCCCCCCCCCCC)n1 [S15N16 D4]
Absolute DNA transfection efficiency in HEK293 cells: 0.4%

CCCCCCCCCCSc1nc(NCCCCCCCCC)nc(NCCCN(C)C)n1 [S10N9 D6]
Absolute DNA transfection efficiency in HEK293 cells: 21.0%

CCCCCCCSc1nc(NCCCCCC)nc(NCC2CCN(C)CC2)n1 [S7N6 D10]
Absolute DNA transfection efficiency in HEK293 cells: 6.3%

CCCCCCCCCCCCNc1nc(NCCCN2CCOCC2)nc(SCCCCCC)n1 [S6N12 D8]
Absolute DNA transfection efficiency in HEK293 cells: 4.0%

CCCCCCCCCCCCCCCCCCSc1nc(NCCCCCCCCCCCCCCC)nc(NCC2CCN(C)CC2)n1 [S18N15 D10]
Absolute DNA transfection efficiency in HEK293 cells: 0.2%

CCCCCCCCCCCCCCCCSc1nc(NCCCCCC)nc(NCCN2CCOCC2)n1 [S16N6 D2]
Absolute DNA transfection efficiency in HEK293 cells: 16.5%

CCCCCCCCCCCCCCCSc1nc(NCCCCCCCCCCCCC)nc(NCCCN(C)C)n1 [S15N13 D6]
Absolute DNA transfection efficiency in HEK293 cells: 2.7%

CCCCCCCCCCCCCCCCCCNc1nc(NCCCN2CCOCC2)nc(SCCCCCCCCCCC)n1 [S11N18 D8]
Absolute DNA transfection efficiency in HEK293 cells: 4.4%

CCCCCCCCNc1nc(NCCCN2CCN(C)CC2)nc(SCCCCCCCC)n1 [S8N8 D9]
Absolute DNA transfection efficiency in HEK293 cells: 7.4%

CCCCCCCCCCCSc1nc(NCCN(CC)CC)nc(SCCCCCCC)n1 [S7S11 D7]
Absolute DNA transfection efficiency in HEK293 cells: 10.4%

CCCCCCCCCCCCNc1nc(NCCCN2CCN(C)CC2)nc(SCCCCCCCC)n1 [S8N12 D9]
Absolute DNA transfection efficiency in HEK293 cells: 48.3%

CCCCCCCCCCCCCCCSc1nc(NCCCCCCCC)nc(NCCCN2CCN(C)CC2)n1 [S15N8 D9]
Absolute DNA transfection efficiency in HEK293 cells: 11.6%

CCCCCCCCCCCCCCCCCCSc1nc(NCCCCCCCCC)nc(NCCN2CCCCC2)n1 [S18N9 D4]
Absolute DNA transfection efficiency in HEK293 cells: 4.0%

CCCCCCCCCCSc1nc(NCCCCCC)nc(NCCN2CCOCC2)n1 [S10N6 D2]
Absolute DNA transfection efficiency in HEK293 cells: 0.5%

CCCCCCCCCCCCSc1nc(NCCCCCCCCC)nc(NCCCN2CCN(C)CC2)n1 [S12N9 D9]
Absolute DNA transfection efficiency in HEK293 cells: 10.9%

CCCCCCCCCCCCCCCCCCNc1nc(NCCCN2CCOCC2)nc(SCCCCCCCC)n1 [S8N18 D8]
Absolute DNA transfection efficiency in HEK293 cells: 5.1%

CCCCCCCCCSc1nc(NCCN2CCOCC2)nc(SCCCCCCC)n1 [S7S9 D2]
Absolute DNA transfection efficiency in HEK293 cells: 28.8%

CCCCCCCCCCSc1nc(NCCCCCCCC)nc(NCCN2CCOCC2)n1 [S10N8 D2]
Absolute DNA transfection efficiency in HEK293 cells: 3.7%
